Drawing on patent US8501787B2, “Compounds for the inhibition of angiogenesis and use thereof” (Shire Orphan Therapies GmbH, priority 2004, dated 2013), this text covers IC50 for 14 compounds.

The first test concerns the target T1, integrin alpha5beta1 (Homo sapiens, UniProt P05556+P08648).
T1 construct: The integrin alpha5beta1 extracellular domain Fc-fusion was expressed and purified; made in house
The test can be described thus: Alpha5beta1-Fibronectin binding assay (competitive ELISA). The conditions noted are these: inhibition of integrin binding to fibronectin; read-out: IC50 alpha5beta1 in nM. On the procedure:
The optimal concentrations of integrin and ligand were selected from ELISA binding studies with variable concentrations of both to obtain optimal signal noise ratio for further studies. IC50 studies were performed with fixed concentration of ligand and integrin and a serial dilution of inhibitor. The plates were measured with SpectraMax Plus reader (Molecular Devices). The resulting inhibition curves were analyzed using SoftMaxPro 4.0 software, the turning point describes the IC50 value.
Fibronectin and Vitronectin were purchased from Sigma, fibrinogen from Calbiochem. (EMD Biosciences, Darmstadt, Germany) The integrin alpha5beta1 extracellular domain Fc-fusion was expressed and purified as described in (Coe, 2001, JBC, 276, 35854). Integrins alphavbeta3 and alphavbeta5 were purchased from Chemicon (Chemicon Europe, Germany) and alphaIIbbeta3 form Kordia (Kordia Life Science, Leiden, Netherlands)
Fibronectin was diluted with coating buffer (15 mM Na2CO3, 35 mM NaHCO3, pH9.6) and coated with 100 μL/well to Nunc-Immuno maxisorp plates (Nalge Nunc Europe Ltd) over night at 4° C. After discarding the coating solution plates were washed 3 times with buffer 1 ([…], pH7.6, 150 mM NaCl, 1 mM […], 1 mg/mL BSA) and blocked with 100 μL blocking buffer (3% BSA in PBS 0.1% Tween20) for 1 hour at room temperature. After washing the blocked plates (3 times) with buffer 1, integrin (50 μL) and either inhibitor (serial dilution in buffer 1) or buffer 1 (50 μL) were added to the wells and incubated for one hour at RT. Plates were then washed (3 times) with buffer 1 and incubated with 100 μL of anti-human-Fc-HRP antibody conjugate (Sigma-Aldrich, Taufkirchen, Germany) in buffer 1 for 1 hour at RT. After additional washing steps (3 times) with buffer 1 50 μL of HRP substrate solution TMB (Seramun, Germany) were added to the wells. Colour development was stopped after 3-5 minutes with 50 μL 1M H2SO4. The developed colour was measured at 450 nm and analyzed as described above.
A general note: In an ELISA, binding on a coated surface is turned into a signal by an enzyme label.
Take `Cc1cc(C)c(S(=O)(=O)N[C@@H](CNC(=O)CO[C@@H]2C[C@@H](CNc3ccccn3)N(C(=O)NC3CCCC3)C2)C(=O)O)c(C)c1` [Compound 20, 3-{2-[1-Cyclopentylcarbamoyl-5-(pyridin-2-ylaminomethyl)-pyrrolidin-3-yloxy]-acetylamino}-2-(2,4,6-trimethyl-benzenesulfonylamino)-propionic acid]: the IC50 came to 6.6 nM.

Staying with this test, now noted: method of section 1.1; read-out: Group (binding activities to integrin alpha5beta1).
Consider `O=C(CO[C@@H]1C[C@@H](CNc2ccccn2)N(C(=O)OCc2ccccc2)C1)NC[C@H](NC(=O)CCc1ccccc1)C(=O)O` [Compound 74, 4-{[2-Carboxy-2-(3-phenyl-propionylamino)-ethylcarbamoyl]-methoxy}-2-(pyridin-2-ylaminomethyl)-pyrrolidine-1-carboxylic acid benzyl ester], for which the IC50 was in the range of 10 to 500 nM.

`O=C(CO[C@@H]1C[C@@H](CNc2ccccn2)N(C(=O)OCc2ccccc2)C1)NC[C@H](NC(=O)CCCc1ccccc1)C(=O)O` [Compound 127, 4-{[2-Carboxy-2-(4-phenyl-butyrylamino)-ethylcarbamoyl]-methoxy}-2-(pyridin-2-ylaminomethyl)-pyrrolidine-1-carboxylic acid benzyl ester]: the IC50 is 10 to 500 nM.

Take `N[C@@H](CNC(=O)CO[C@@H]1C[C@@H](CNc2ccccn2)N(C(=O)OCc2ccccc2)C1)C(=O)O` [Compound 81, 4-[(2-Amino-2-carboxy-ethylcarbamoyl)-methoxy]-2-(pyridin-2-ylaminomethyl)-pyrrolidine-1-carboxylic acid benzyl ester]: the IC50 was > 500 nM.

For the compound `O=C(O)C[C@H](Cc1ccccc1)NC(=O)CO[C@@H]1C[C@@H](CNc2ccccn2)N(C(=O)OCc2ccccc2)C1` [Compound 150, 4-[(1-Carboxymethyl-2-phenyl-ethylcarbamoyl)-methoxy]-2-(pyridin-2-ylaminomethyl)-pyrrolidine-1-carboxylic acid benzyl ester], the IC50 was > 500 nM.

Turning to `COc1ccnc(NC[C@@H]2C[C@@H](OCC(=O)NC[C@H](NC(=O)C3(C)CCCCC3)C(=O)O)CN2C(=O)CC(C)(C)C)c1` [Compound 148, 3-(2-{1-(3,3-Dimethyl-butyryl)-5-[(4-methoxy-pyridin-2-ylamino)-methyl]-pyrrolidin-3-yloxy}-acetylamino)-2-[(1-methyl-cyclohexanecarbonyl)-amino]-propionic acid], the IC50 is < 10 nM.

Regarding `O=C(CO[C@@H]1C[C@@H](CNc2ccccn2)N(C(=O)OCc2ccccc2)C1)NC[C@H](NC(=O)c1ccccc1-c1ccccc1)C(=O)O` [Compound 104, 4-({2-[(Biphenyl-2-carbonyl)-amino]-2-carboxy-ethylcarbamoyl}-methoxy)-2-(pyridin-2-ylaminomethyl)-pyrrolidine-1-carboxylic acid benzyl ester], the IC50 lay in the range of 10 to 500 nM.

As to `Cc1cc(C)c(S(=O)(=O)N[C@@H](CNC(=O)CO[C@@H]2C[C@@H](CNc3ccccn3)N(C(=O)NC3CCCC3)C2)C(=O)O)c(C)c1` [Compound 20, 3-{2-[1-Cyclopentylcarbamoyl-5-(pyridin-2-ylaminomethyl)-pyrrolidin-3-yloxy]-acetylamino}-2-(2,4,6-trimethyl-benzenesulfonylamino)-propionic acid], the IC50 was < 10 nM.

In the case of `Cc1cccc(C)c1C(=O)N[C@@H](CNC(=O)CO[C@@H]1C[C@@H](CNc2ccccn2)N(C(=O)OCc2ccccc2)C1)C(=O)O` [Compound 92, 4-{[2-Carboxy-2-(2,6-dimethyl-benzoylamino)-ethylcarbamoyl]-methoxy}-2-(pyridin-2-ylaminomethyl)-pyrrolidine-1-carboxylic acid benzyl ester], the IC50 is < 10 nM.

`Cc1cc(C)c(S(=O)(=O)N[C@@H](CNC(=O)CO[C@@H]2C[C@@H](CNc3ccccn3)N(C(=S)Nc3ccc(-c4c5ccc(=O)cc-5oc5cc(O)ccc45)c(C(=O)O)c3)C2)C(=O)O)c(C)c1` [Compound 61, 5-{[4-{[2-Carboxy-2-(2,4,6-trimethyl-benzenesulfonylamino)-ethylcarbamoyl]-methoxy}-2-(pyridin-2-ylaminomethyl)-pyrrolidine-1-carbothioyl]-amino}-2-(6-hydroxy-3-oxo-3H-xanthen-9-yl)-benzoic acid]: the IC50 lay in the range of 10 to 500 nM.

`Cc1cc(C)c(S(=O)(=O)N[C@@H](CNC(=O)CO[C@@H]2C[C@@H](CNc3ncccn3)N(C(=O)OCc3ccccc3)C2)C(=O)O)c(C)c1` [Compound 130, 4-{[2-Carboxy-2-(2,4,6-trimethyl-benzenesulfonylamino)-ethylcarbamoyl]-methoxy}-2-(pyrimidin-2-ylaminomethyl)-pyrrolidine-1-carboxylic acid benzyl ester]: the IC50 is > 500 nM.

With `COc1cccc(OC)c1C(=O)N[C@@H](CNC(=O)CO[C@@H]1C[C@@H](CNc2ccccn2)N(C(=O)OCc2ccccc2)C1)C(=O)O` [Compound 90, 4-{[2-Carboxy-2-(2,6-dimethoxy-benzoylamino)-ethylcarbamoyl]-methoxy}-2-(pyridin-2-ylaminomethyl)-pyrrolidine-1-carboxylic acid benzyl ester], the IC50 is < 10 nM.

`Cc1ccc(C[C@@H](CC(=O)O)NC(=O)CO[C@@H]2C[C@@H](CNc3ccccn3)N(C(=O)OCc3ccccc3)C2)cc1` [Compound 152, 4-[(1-Carboxymethyl-2-p-tolyl-ethylcarbamoyl)-methoxy]-2-(pyridin-2-ylaminomethyl)-pyrrolidine-1-carboxylic acid benzyl ester]: the IC50 was > 500 nM.

As to `CC(C)(C)C(=O)N[C@@H](CNC(=O)CO[C@@H]1C[C@@H](CNc2ccccn2)N(C(=O)OCc2ccccc2)C1)C(=O)O` [Compound 117, 4-{[2-Carboxy-2-(2,2-dimethyl-propionylamino)-ethylcarbamoyl]-methoxy}-2-(pyridin-2-ylaminomethyl)-pyrrolidine-1-carboxylic acid benzyl ester], the IC50 is < 10 nM.

Consider `CCC(C)(C)C(=O)N[C@@H](CNC(=O)CO[C@@H]1C[C@@H](CNc2ccccn2)N(C(=O)OCc2ccccc2)C1)C(=O)O` [Compound 118, 4-{[2-Carboxy-2-(2,2-dimethyl-butyrylamino)-ethylcarbamoyl]-methoxy}-2-(pyridin-2-ylaminomethyl)-pyrrolidine-1-carboxylic acid benzyl ester], for which the IC50 is < 10 nM.
